# Experimental data: paper PMC10093438, “α-Mangostin Promotes In Vitro and In Vivo Degradation of Androgen Receptor and AR-V7 Splice Variant in Prostate Cancer Cells” (Cancers, 2023)
# Molecular target: T1, BiP (GRP78) (Homo sapiens, UniProt P11021)
# T1 construct: gene HSPA5; recombinant His-GST-BiP (BiP-N-His-GST), expressed in E. coli
# Assay: SPR (Biacore T200, His-capture plus amine coupling on NTA chip)
# Type: binding
# T1 sequence (P11021 19-654): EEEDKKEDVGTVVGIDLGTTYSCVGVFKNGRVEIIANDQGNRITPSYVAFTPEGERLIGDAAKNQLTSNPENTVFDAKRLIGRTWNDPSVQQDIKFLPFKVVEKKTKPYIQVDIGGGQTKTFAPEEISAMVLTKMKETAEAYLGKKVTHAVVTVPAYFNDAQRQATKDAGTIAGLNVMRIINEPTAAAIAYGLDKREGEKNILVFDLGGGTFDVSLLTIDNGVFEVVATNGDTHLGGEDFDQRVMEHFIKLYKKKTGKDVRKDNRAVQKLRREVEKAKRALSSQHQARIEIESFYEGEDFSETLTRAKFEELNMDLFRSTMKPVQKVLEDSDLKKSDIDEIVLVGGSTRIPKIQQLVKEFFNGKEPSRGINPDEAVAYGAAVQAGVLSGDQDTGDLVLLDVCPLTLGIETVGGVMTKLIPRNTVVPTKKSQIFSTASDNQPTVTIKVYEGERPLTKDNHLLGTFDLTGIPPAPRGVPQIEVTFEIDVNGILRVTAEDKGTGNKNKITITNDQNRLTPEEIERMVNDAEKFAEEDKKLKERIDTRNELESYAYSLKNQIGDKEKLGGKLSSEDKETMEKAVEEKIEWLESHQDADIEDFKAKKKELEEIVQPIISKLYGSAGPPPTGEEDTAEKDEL
smiles,measurement,value
COc1c(O)cc2oc3cc(O)c(CC=C(C)C)c(O)c3c(=O)c2c1CC=C(C)C [α-Mangostin],Kd,21.7 µM
